In article PMC10127554 (Chemical biology & drug design, 2022):

Tests used:
[1] = system: A549 cells; test: Antiproliferative activity, CellTiter Glo assay, A549; settings: Homo sapiens, A549, 72 h, read-out: IC50 A549
[2] = system: NCI-H522 cells; test: Antiproliferative activity, CellTiter Glo assay, NCI-H522; settings: Homo sapiens, NCI-H522, 72 h, read-out: IC50 NCIH522
[3] = system: non-cancerous human lung fibroblast cells (HLF); test: Cytotoxicity, CellTiter Glo assay, non-cancerous human lung fibroblast cells; type: cell-based; settings: for IC50: Homo sapiens, Fibroblast, 72 h, read-out: IC50 Non-cancerous HLF
[4] = system: NCI-H522 cells; test: Cell cycle analysis by flow cytometry; type: cell-based, human; settings: 48hrs at 5 μM
[5] = target: ACVRL1 (Homo sapiens, UniProt P37023); test: Kinase activity profiling; type: biochemical; settings: concentration not given
Chain of ACVRL1 (P37023 22-503): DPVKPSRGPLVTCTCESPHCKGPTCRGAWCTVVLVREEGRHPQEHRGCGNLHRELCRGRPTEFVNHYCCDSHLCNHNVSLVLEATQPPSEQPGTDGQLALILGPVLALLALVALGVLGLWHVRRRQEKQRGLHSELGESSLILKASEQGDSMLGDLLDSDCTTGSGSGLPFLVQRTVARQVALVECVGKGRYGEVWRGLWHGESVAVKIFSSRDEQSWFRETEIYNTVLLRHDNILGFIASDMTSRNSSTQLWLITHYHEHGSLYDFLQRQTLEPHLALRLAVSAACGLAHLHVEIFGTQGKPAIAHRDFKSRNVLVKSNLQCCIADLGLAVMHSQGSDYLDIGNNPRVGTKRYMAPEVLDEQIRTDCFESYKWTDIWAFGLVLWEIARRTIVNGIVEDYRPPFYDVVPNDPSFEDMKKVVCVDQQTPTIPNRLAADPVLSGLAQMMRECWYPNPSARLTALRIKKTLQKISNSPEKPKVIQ

[6] = system: panel of 485 kinases (including 110 oncogenic kinases); test: Kinase activity profiling; type: biochemical
[7] = target: T1, NUAK2 (Homo sapiens, UniProt Q9H093); test: Kinase activity profiling; type: biochemical; settings: concentration not given
T1 sequence (Q9H093 1-628): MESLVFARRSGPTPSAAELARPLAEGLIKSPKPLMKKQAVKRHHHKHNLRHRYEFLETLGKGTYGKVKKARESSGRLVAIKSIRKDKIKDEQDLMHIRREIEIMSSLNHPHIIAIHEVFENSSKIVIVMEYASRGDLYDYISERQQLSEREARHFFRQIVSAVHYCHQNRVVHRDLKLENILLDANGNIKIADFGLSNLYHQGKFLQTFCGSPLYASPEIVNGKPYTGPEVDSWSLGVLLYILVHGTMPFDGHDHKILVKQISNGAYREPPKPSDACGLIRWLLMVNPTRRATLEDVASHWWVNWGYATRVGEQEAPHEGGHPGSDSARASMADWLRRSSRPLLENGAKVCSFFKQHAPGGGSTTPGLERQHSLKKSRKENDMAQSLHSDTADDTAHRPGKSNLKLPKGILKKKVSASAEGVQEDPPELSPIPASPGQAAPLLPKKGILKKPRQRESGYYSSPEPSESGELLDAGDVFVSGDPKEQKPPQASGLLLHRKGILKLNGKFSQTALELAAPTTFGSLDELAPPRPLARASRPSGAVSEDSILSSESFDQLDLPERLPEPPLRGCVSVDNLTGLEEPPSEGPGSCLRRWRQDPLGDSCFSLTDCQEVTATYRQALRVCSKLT

[8] = target: T2, ANKK1 (Homo sapiens, UniProt Q8NFD2); test: Kinase activity profiling; type: biochemical; settings: concentration not given
T2 sequence (Q8NFD2 1-765): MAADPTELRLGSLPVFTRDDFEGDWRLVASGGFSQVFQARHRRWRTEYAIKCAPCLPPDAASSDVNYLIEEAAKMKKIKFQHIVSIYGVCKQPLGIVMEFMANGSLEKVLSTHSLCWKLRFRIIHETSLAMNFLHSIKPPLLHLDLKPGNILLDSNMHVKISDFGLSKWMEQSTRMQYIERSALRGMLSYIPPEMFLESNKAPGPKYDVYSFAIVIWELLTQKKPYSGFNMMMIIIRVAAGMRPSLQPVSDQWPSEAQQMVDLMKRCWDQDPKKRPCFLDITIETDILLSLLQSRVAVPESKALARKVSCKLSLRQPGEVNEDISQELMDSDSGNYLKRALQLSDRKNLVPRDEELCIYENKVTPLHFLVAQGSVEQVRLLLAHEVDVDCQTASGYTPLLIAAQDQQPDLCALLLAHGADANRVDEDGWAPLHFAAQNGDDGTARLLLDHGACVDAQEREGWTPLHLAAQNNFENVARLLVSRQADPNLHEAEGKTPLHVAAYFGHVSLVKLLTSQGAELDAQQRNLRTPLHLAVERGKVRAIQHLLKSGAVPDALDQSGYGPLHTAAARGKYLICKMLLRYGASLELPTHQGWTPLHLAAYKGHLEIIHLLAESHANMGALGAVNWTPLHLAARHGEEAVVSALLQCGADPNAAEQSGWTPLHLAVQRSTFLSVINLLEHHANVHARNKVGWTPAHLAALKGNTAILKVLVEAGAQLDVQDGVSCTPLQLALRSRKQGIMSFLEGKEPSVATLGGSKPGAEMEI

SMILES | IC50 [1] [µM] | IC50 [2] [µM] | IC50 [3] [µM] | times less cytotoxic to non-cancerous cells ([3]; non-cancerous cells versus A549 and NCIH522 cancer cell lines) [times] | effect on cell cycle progression [4] | inhibitory activity against ACVRL1 [5] [%] | inhibitory activity over panel of 485 kinases [6] | inhibitory activity against NUAK2 [7] [%] | inhibitory activity against ANKK1 [8] [%]
COc1cccc(C2=NN(c3ccccc3)C(=O)C2)c1 [P10, 5-(3-methoxyphenyl)-2-phenyl-2,4-dihydro-3H-pyrazol-3-one] | > 100 | > 100 | – | – | – | – | – | – | –
O=C1CC(c2ccc(Br)cc2)=NN1c1ccc(C(F)(F)F)cc1 [P16, 5-(4-bromophenyl)-2-(4-(trifluoromethyl)phenyl)-2,4-dihydro-3H-pyrazol-3-one] | 3.37 ± 0.1 | 2.95 ± 0.18 | 1.45 ± 1.14 | – | – | – | – | – | –
O=C1CC(c2ccc(F)cc2)=NN1c1ccccc1 [P8, 5-(4-fluorophenyl)-2-phenyl-2,4-dihydro-3H-pyrazol-3-one] | 9.51 ± 3.12 | 17.9 ± 3.36 | 17.7 ± 1.1 | – | – | – | – | – | –
COc1ccc(C2=NN(c3ccccc3)C(=O)C2)cc1 [P9, 5-(4-methoxyphenyl)-2-phenyl-2,4-dihydro-3H-pyrazol-3-one] | 42.2 ± 2.76 | 51.2 ± 3.06 | – | – | – | – | – | – | –
O=C1CC(c2ccc(Br)cc2)=NN1c1ccccc1 [P7, 5-(4-bromophenyl)-2-phenyl-2,4-dihydro-3H-pyrazol-3-one] | 6.35 ± 0.85 | 4.7 ± 1.38 | 61.3 ± 1.08 | 10 | more cell population in G0/G1 phase | 47 | no potential inhibitory activity against any tested kinase | 41 | 50
O=C1CC(c2ccc(Br)cc2)=NN1c1ccc(Br)cc1 [P14, 2,5-bis(4-bromophenyl)-2,4-dihydro-3H-pyrazol-3-one] | 2.73 ± 0.28 | 2.41 ± 0.57 | 2.55 ± 1.1 | – | more cell population in G2/M phase | – | – | – | –
O=C1CC(c2ccccc2)=NN1c1ccc(Cl)cc1 [P5, 2-(4-chlorophenyl)-5-phenyl-2,4-dihydro-3H-pyrazol-3-one] | 1.98 ± 1.1 | 4.5 ± 1.16 | 0.99 ± 1.25 | – | – | – | – | – | –
CC1=NN(c2ccccc2)C(=O)C1(C)O (stereo not drawn) [P1, 4-hydroxy-4,5-dimethyl-2-phenyl-2,4-dihydro-3H-pyrazol-3-one] | > 100 | > 100 | > 100 | – | – | – | – | – | –
O=C1CC(c2ccccc2)=NN1c1ccccc1 [P3, 2,5-diphenyl-2,4-dihydro-3H-pyrazol-3-one] | 10.3 ± 1.55 | 17 ± 2.61 | 25.1 ± 1.39 | – | – | – | – | – | –
CN(C)C/C=C/C(=O)Nc1cc2c(Nc3ccc(F)c(Cl)c3)ncnc2cc1O[C@H]1CCOC1 [PC-1, Afatinib, reference compound] | 8.46 ± 2.03 | 5.34 ± 0.94 | 12.2 ± 3.12 | – | – | – | – | – | –
O=C1CC(c2ccc(F)cc2)=NN1c1ccc(Br)cc1 [P13, 2-(4-bromophenyl)-5-(4-fluorophenyl)-2,4-dihydro-3H-pyrazol-3-one] | 2.67 ± 0.51 | 3.7 ± 0.34 | 3.57 ± 1.15 | – | more cell population in G2/M phase | – | – | – | –
O=C1CC(c2ccc([N+](=O)[O-])cc2)=NN1c1ccccc1 [P6, 5-(4-nitrophenyl)-2-phenyl-2,4-dihydro-3H-pyrazol-3-one] | 39.6 ± 1.05 | 40.5 ± 2.3 | 26.8 ± 1.4 | – | – | – | – | – | –
O=C1CC(c2ccc(Br)cc2)=NN1c1cc(Cl)cc(Cl)c1 [P17, 5-(4-bromophenyl)-2-(3,5-dichlorophenyl)-2,4-dihydro-3H-pyrazol-3-one] | 5.56 ± 0.07 | 5.07 ± 1.18 | 6.94 ± 1.12 | – | – | – | – | – | –
O=C1CC(c2ccc(C(F)(F)F)cc2)=NN1c1ccccc1 [P11, 2-phenyl-5-(4-(trifluoromethyl)phenyl)-2,4-dihydro-3H-pyrazol-3-one] | 5.98 ± 0.84 | 4.88 ± 1.73 | 26.1 ± 1.12 | – | more cell population in G0/G1 phase | – | – | – | –
O=C1CC(c2ccccc2)=NN1c1ccc(Br)cc1 [P4, 2-(4-bromophenyl)-5-phenyl-2,4-dihydro-3H-pyrazol-3-one] | 2.61 ± 1.12 | 4.93 ± 1.13 | 0.72 ± 1.07 | – | – | – | – | – | –
CCCC1=NN(c2ccccc2)C(=O)C1 [P2, 2-phenyl-5-propyl-2,4-dihydro-3H-pyrazol-3-one] | > 100 | > 100 | – | – | – | – | – | – | –
O=C1CC(c2cc(F)c(F)c(F)c2F)=NN1c1ccccc1 [P12, 2-phenyl-5-(2,3,4,5-tetrafluorophenyl)-2,4-dihydro-3H-pyrazol-3-one] | 8.6 ± 0.59 | 9.9 ± 2.44 | 8.52 ± 1.09 | – | – | – | – | – | –
